In article PMC11986975, “A Cdk5 inhibitor restores cognitive function and alleviates type 2 diabetes in mice” (iScience, 2025):

Assays:
Cdk5/p35 = Cdk5/p35 (Homo sapiens, UniProt Q00535); assay: Cdk5 kinase assay (ADP-Glo) with Cdk5/p35 complex; assay type: biochemical; conditions: 10 μM ATP, histone substrate, inhibitor 0-100 nM
Protocol: (§1) The test tube Cdk5 Kinase assay was performed utilizing Cdk5/p35 and Cdk5/p25 complexes as kinases, following the modified procedure outlined in a previous study,[52] using a Promega ADP-GloTM Kinase Assay kit. The reaction was carried out with 10 μM ATP and 2 μg of histone as the substrate for Cdk5 complexes. To study the inhibition patterns, 19 Cdk5 inhibitors (BLINK1-19) identified through molecular docking were added to the Cdk5 kinase reaction in increasing concentrations ranging from 0 to 100 nM. The IC50 (half-maximal inhibitory concentration) values of all the inhibitors were calculated based on Log(inhibitor) vs. normalized response using GraphPad software.

[1] = PAMPA blood-brain barrier permeability assay (brain polar lipid extract); assay type: in vitro ADME; conditions: 7 h incubation, 100-500 uM, > 10*10^-6 cm/s = high permeability, read-out: Paap (PAMPA-BBB permeability)
Protocol: PAMPA assay was performed using a PAMPA filter plate (MAIPNTR10) coated with brain polar lipid extract (141101P) to evaluate blood-brain barrier (BBB) permeability of the compounds. The assay was performed with the help of the protocol provided by Merck Millipore on their official website and articles as cited.[62]^,[63] 5% of brain polar solution was used to coat the donor plate (15ul per well) by drying the plate in a fume hood. The acceptor plate was filled with 300ul of buffer (5% DMSO in PBS). The donor plate coated with brain polar solution was placed above the acceptor plate and different concentrations of Cdk5 inhibitor (100-500uM) dissolved in 5% DMSO were added to it (150ul per well). After 7 h of incubation, the absorbance was measured at broad spectrum 250–500 nm. […] For permeability, the Papp of the drugs was calculated.Paap = C ∗ -ln (1-[drugacceptor]/[Drugequilibrium]); C=VD∗VA/(VD + VA) ∗ area ∗ timePaap < 10∗10^−6 cm/s - Low permeability; Paap > 10∗10^−6 cm/s - high permeability

[2] = MTT cell toxicity assay in HepG2 cells; assay type: cell-based; conditions: human, all doses (25 to 100 μM)
Protocol: HEK293T, HepG2, and N2A cells were used in the study representing kidney, liver and neuronal cell lines respectively. The cells were cultured in DMEM supplemented with 10% fetal bovine serum and antibiotics at 37°C under 5% CO2. The cells were tested negative for mycoplasma.
To evaluate the compound toxicity for the Cdk5 inhibitors, an MTT assay was performed in HEK293T, HepG2, and N2A cells at varying concentrations. Six hours after cell seeding, the compounds were added in different amounts, and the cells were harvested after 24 h for further analysis. N2A cells were transfected using Lipofectamine-3000 reagent, co-transfecting with plasmids encoding Cdk5/p35 and Cdk5/p25 for 12 h, followed by inhibitor treatment to assess their effects in the cell culture system. The concentrations of each plasmids used was 1 μg, total of 3 μg per well for 6 well plates.

HFD-fed mice [3] = assay: Insulin tolerance test (ITT) in HFD mice; assay type: in vivo; conditions: i.p., both dosages 20 and 40 mg/kg/day, 20 days
Protocol: For the glucose tolerance test, 2 g/kg of glucose was utilized, and 0.75U/kg of human insulin was employed The glucose tolerance test (GTT) and insulin tolerance test (ITT) were performed in HFD mice models after 20 weeks of HFD feeding followed by 20 days of drug administration.[48] For GTT the mice were kept in a fasting period for overnight before glucose injections of 2 g/kg intraperitoneally. For ITT the mice were kept in a fasting for 6 h prior to insulin injection of 0.75 U/kg intraperitoneally. A one-touch glucometer was used to assess the blood sugar levels at various intervals (0, 60, and 120 min) following intraperitoneal infusion of both glucose and insulin.[23]^,[49]^,[50]^,[51] After 20 weeks of a HFD and 20 days of drug administration, the tests were carried out.

HFD-fed mice [4] = assay: Elevated plus maze (EPM) in HFD mice; assay type: in vivo; conditions: i.p., 20 days, compared to HFD group
Description: In order to examine anxiety-like behavior, phenotype transgenic and knockout mice, and screen for anxiolytic and anxiogenic medicines, this maze takes advantage of the natural fear of open, high areas in rodents.[56]^,[57]
The EPM experiment is a widely utilized technique in behavioral neuroscience to evaluate anxiety-related behaviors in mice.[57] The apparatus comprises two open arms and two closed arms arranged in a plus-shaped configuration and elevated above the ground. Mice are introduced to the center of the maze, and their movements are observed over a set period of 5 min.[56]^,[58] The amount of time spent in the open arms versus the closed arms is recorded, with more time in the open arms indicating lower anxiety levels. The distance traveled in each arm were also analyzed using ANYmaze software. This method leverages the natural tendency of rodents to avoid open spaces and seek enclosed areas.

[5] = system: neurodegenerative markers in hippocampus; assay: Western blot of hippocampal proteins (Cdk5, p35/p25, NF-H, p-NF-H, NF-L, tau, p-tau) in treated HFD mice; assay type: in vivo; conditions: i.p.
Protocol: For tissue lysate preparation the mice were sacrificed following the Institution’s ethical guidelines. The hippocampus was isolated from the rest of the brain and treated in a tissue lysis solution with a protease and phosphatase inhibitor cocktail. Western blotting was performed to study the expression patterns of the protein of interest. Each well of a polyacrylamide gel was loaded with an identical amount of protein lysate (40–50 μg), which was then transferred to the nitrocellulose membrane. In 1X PBS with 0.1% (v/v) Tween 20, the main antibodies were diluted.

Cdk5/p25 = Cdk5/p25 (Homo sapiens, UniProt Q00535); assay: Cdk5 kinase assay (ADP-Glo) with Cdk5/p25 complex; assay type: biochemical; conditions: 10 μM ATP, histone substrate, inhibitor 0-100 nM
Protocol: as §1

Sequence of Cdk5/p35 (Q00535 whole entry, species assumed): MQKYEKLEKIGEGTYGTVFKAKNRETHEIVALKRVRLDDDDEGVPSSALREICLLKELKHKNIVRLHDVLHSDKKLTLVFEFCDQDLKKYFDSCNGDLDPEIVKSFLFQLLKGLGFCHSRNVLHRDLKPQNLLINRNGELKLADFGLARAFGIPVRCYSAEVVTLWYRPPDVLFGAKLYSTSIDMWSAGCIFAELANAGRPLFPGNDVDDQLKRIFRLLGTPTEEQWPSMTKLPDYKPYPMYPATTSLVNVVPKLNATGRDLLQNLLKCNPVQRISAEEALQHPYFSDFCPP
Sequence of Cdk5/p35 (Q15078 whole entry partner, species assumed): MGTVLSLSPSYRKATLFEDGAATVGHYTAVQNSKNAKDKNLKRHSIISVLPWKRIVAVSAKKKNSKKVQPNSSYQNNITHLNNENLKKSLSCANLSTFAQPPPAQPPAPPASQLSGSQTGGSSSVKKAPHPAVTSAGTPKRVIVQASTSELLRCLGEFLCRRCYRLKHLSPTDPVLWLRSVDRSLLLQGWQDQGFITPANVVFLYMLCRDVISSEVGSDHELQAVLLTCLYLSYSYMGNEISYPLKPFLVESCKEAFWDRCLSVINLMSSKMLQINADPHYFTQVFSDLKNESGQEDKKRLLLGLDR
Sequence of Cdk5/p25 (Q00535 whole entry, species assumed): as the sequence (Q00535 whole entry, species assumed) above
Sequence of Cdk5/p25 (Q15078 99-307 partner limits assumed, species assumed): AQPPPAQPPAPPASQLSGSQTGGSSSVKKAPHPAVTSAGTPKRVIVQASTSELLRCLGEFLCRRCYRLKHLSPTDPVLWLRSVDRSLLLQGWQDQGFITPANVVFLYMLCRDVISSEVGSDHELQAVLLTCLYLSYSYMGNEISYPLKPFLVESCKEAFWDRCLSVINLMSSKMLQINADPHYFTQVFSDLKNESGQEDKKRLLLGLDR

Row | SMILES | IC50 (Cdk5/p35) [nM] | Papp at 7 h [1] [×10⁻⁶ cm/s] | viability at 24 h [2] [%] | Insulin tolerance test (ITT) (HFD-fed mice [3]) | Anxiety behavior in elevated plus maze (time in open and closed arms) (HFD-fed mice [4]) | Hippocampal expression levels of CDK5 ([5]; 20 days) | neurofilament light chain (NF-L) levels in hippocampus ([5]; 20 days) | p25 generation in hippocampus ([5]; 20 days) | phospho-tau-396Ser levels in hippocampus ([5]; 20 days) | phospho-NF-H levels in hippocampus ([5]; particularly at a higher dose) | IC50 (Cdk5/p25) [nM]
1 | O=C(COc1ccccc1C(=O)Nc1cccc(Cl)c1Cl)Nc1ccc(N2CCOCC2)c(Cl)c1 [BLINK11, 2-(2-((3-chloro-4-morpholinophenyl)amino)-2-oxoethoxy)-N-(2,3-dichlorophenyl)benzamide] | 17.1 | > 10 | > 50 | significant rescue | rescuing effect on anxiety behavior | remain unaltered | restored | remains unchanged | significantly decreased | significantly reduced | 14.7
2 | COc1ccc(C(=O)C[C@@]2(O)C(=O)N(Cc3ccccc3)c3ccc(Br)cc32)cc1[N+](=O)[O-] [BLINK15] | 29.3 | > 10 | > 50 | significant rescue | no significant difference compared to the HFD group | remain unaltered | – | remains unchanged | – | – | 12.1
